Source: patent publication US20120270929A1, “MODULATION OF TTC39 EXPRESSION TO INCREASE HDL” (ISIS Pharmaceuticals, Inc., priority 2009, published 2012)
Oligonucleotides are written 5' to 3', each unit as a sugar letter and its base; * is a phosphorothioate linkage, no mark a phosphodiester; rarer units and linkages stand in square brackets, end groups in braces. Plain capitals give the bases only. e = 2'-O-(2-methoxyethyl) (MOE); [5mC] = 5-methylcytosine; d = 2'-deoxy (DNA)

What was measured:
[1] = Body and organ weights in C57BL/6 mice; type: in vivo, mouse
Procedure: (§1) Four groups of five mice each were injected twice a week with 25 mg/kg (totaling 50 mg/kg/week) of ISIS 447114, ISIS 447118, ISIS 447143, or ISIS 447144 for 6 weeks. A control group of five mice was injected with phosphate buffered saline (PBS) twice a week for 6 weeks. Plasma samples were obtained before the start of treatment, at week 3 and at week 6. At the end of the treatment period, mice were fasted for 4 hours before being euthanized. Plasma and tissue samples were obtained for further analysis.
Body weights of all the mice were measured weekly till the end of the treatment period. Organ weights were taken at the end of the treatment period when the mice were euthanized.

[2] = Plasma cholesterol and triglycerides in C57BL/6 mice (Olympus AU400e); type: in vivo, mouse
Procedure: as §1
To investigate the effect of inhibition of TTC39B on triglycerides and cholesterol levels in the plasma, samples were collected on weeks 0, 3, and 6, and total plasma cholesterol, LDL cholesterol, HDL cholesterol, and triglycerides were analyzed on an Olympus AU400e Analyzer.

PCSK9 mRNA = PCSK9 mRNA levels in C57BL/6 mice; type: in vivo, mouse; conditions: 50 mg/kg/week, 6 weeks, compared to PBS control
Procedure: as §1
The effect of inhibition of TTC39B in mice on cholesterol homeostasis was studied. PCSK9 mRNA levels were measured using the murine primer probe set mPCSK9 (forward sequence ACCGACTTCAACAGCGTGC, designated herein as SEQ ID NO: 106; reverse sequence GGCTGTCACACTTGCTCGC, designated herein as SEQ ID NO: 107, probe sequence AGGATGGGACACGCTTCCACAGACAX, wherein X is a fluorophore, designated herein as SEQ ID NO: 108). LDLR mRNA levels were measured using the murine primer probe set mLDLR (forward sequence GACCGCAGCGAGTACACCA, designated herein as SEQ ID NO: 109; reverse sequence TCACCTCCGTGTCGAGAGC, designated herein as SEQ ID NO: 110, probe sequence […], designated herein as SEQ ID NO: 111). The results are presented as percentage inhibition compared to the PBS control.

murine TTC39B mRNA [3] = experiment: Dose-dependent antisense inhibition of murine TTC39B in mouse primary hepatocytes (Example 3); type: cell-based; conditions: cytofectin, ~16 h
Procedure: Cells were plated at a density of 10,000 cells per well and transfected using cytofectin reagent with 6.25 nM, 12.5 nM, 25 nM, 50 nM, 100 nM, and 200 nM concentrations of antisense oligonucleotide, as specified in Table 4. After a treatment period of approximately 16 hours, RNA was isolated from the cells and TTC39B mRNA levels were measured by quantitative real-time PCR. Murine primer probe set mTtc39b_LTS00287 was used to measure mRNA levels. TTC39B mRNA levels were adjusted according to total RNA content, as measured by RIBOGREEN®. Results are presented as percent inhibition of TTC39B, relative to untreated control cells.

[4] = Plasma glucose in C57BL/6 mice (glucose oxidase assay); type: in vivo, mouse
Procedure: as §1
Plasma glucose values were determined using a Beckman Glucose Analyzer II (Beckman Coulter) by a glucose oxidase assay. As presented in Table 14, there was no significant change in glucose levels after treatment with ISIS oligonucleotides.

SRB1 mRNA = SRB1 mRNA levels in C57BL/6 mice after TTC39B inhibition; type: in vivo, mouse; conditions: 50 mg/kg/week, 6 weeks
Procedure: as §1
The effect of inhibition of TTC39B in mice on these proteins of reverse cholesterol transport was studied. RNA levels of ABCA1 were measured using murine primer probe set RTS1204 (forward sequence […], designated herein as SEQ ID NO: 97; reverse sequence […], designated herein as SEQ ID NO: 98; and probe sequence […], designated herein as SEQ ID NO: 99). RNA levels of apoA1 were measured using murine primer probe set RTS14737 (forward sequence […], designated herein as SEQ ID NO: 100; reverse sequence […], designated herein as SEQ ID NO: 101; and probe sequence […], designated herein as SEQ ID NO: 102). RNA levels of SRB1 were measured using murine primer probe set mSRB-1 (forward sequence […], designated herein as SEQ ID NO: 103; reverse sequence ATGCGACTTGTCAGGCTGG, designated herein as SEQ ID NO: 104; and probe sequence […], designated herein as SEQ ID NO: 105).

murine TTC39B mRNA [5] = experiment: Dose-dependent antisense inhibition of murine TTC39B in mouse primary hepatocytes (Example 2); type: cell-based; conditions: cytofectin, ~16 h
Method in brief: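 Mouse primary hepatocytes (10,000/well) transfected via cytofectin with 25, 50, 100 or 200 nM antisense oligonucleotide for about 16 h. TTC39B mRNA quantified by real-time PCR, normalized to RIBOGREEN total RNA, as % inhibition versus untreated cells.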

APOA1 plasma protein = APOA1 plasma protein levels in C57BL/6 mice; type: in vivo, mouse; set-up: APOA1 plasma protein levels: unit not given here
Procedure: as §1

[6] = Week 0 (before treatment), 50 mg/kg/week

GCCACCAGTGCCTGCTGAGC (antisense eG*e[5mC]*e[5mC]*eA*e[5mC]*d[5mC]*dA*dG*dT*dG*d[5mC]*d[5mC]*dT*dG*d[5mC]*eT*eG*eA*eG*e[5mC]) [ISIS 447143]
Kidney weight after treatment ([1]; 50 mg/kg/week, 6 weeks): 0.34 g | Liver weight after treatment ([1]; 50 mg/kg/week, 6 weeks): 1.5 g | Spleen weight after treatment ([1]; 50 mg/kg/week, 6 weeks): 0.08 g | body weight ([1]; Week 3, 50 mg/kg/week): 27 g | body weight ([1]; Week 6, 50 mg/kg/week): 28 g | body weight ([1]; week 1, 50 mg/kg/week): 26 g | body weight ([1]; week 2, 50 mg/kg/week): 26 g | body weight ([1]; week 4, 50 mg/kg/week): 27 g | body weight ([1]; week 5, 50 mg/kg/week): 28 g | total cholesterol % increase over baseline ([2]; 50 mg/kg/week, 6 weeks, baseline average of 72 mg/dL): +46% | HDL cholesterol levels [2, 6]: 44 mg/dL | LDL cholesterol levels [2, 6]: 13 mg/dL | total cholesterol levels [2, 6]: 70 mg/dL | triglyceride levels [2, 6]: 95 mg/dL | HDL cholesterol levels ([2]; Week 3, 50 mg/kg/week): 56 mg/dL | HDL cholesterol levels (% change over baseline) ([2]; Week 3, 50 mg/kg/week): +28% | LDL cholesterol levels ([2]; Week 3, 50 mg/kg/week): 14 mg/dL | total cholesterol levels ([2]; Week 3, 50 mg/kg/week): 81 mg/dL | triglyceride levels ([2]; Week 3, 50 mg/kg/week): 92 mg/dL | HDL cholesterol levels ([2]; Week 6, 50 mg/kg/week): 91 mg/dL | HDL cholesterol levels (% change over baseline) ([2]; Week 6, 50 mg/kg/week): +104% | LDL cholesterol levels ([2]; Week 6, 50 mg/kg/week): 17 mg/dL | total cholesterol levels ([2]; Week 6, 50 mg/kg/week): 104 mg/dL | triglyceride levels ([2]; Week 6, 50 mg/kg/week): 95 mg/dL | Percent inhibition PCSK9 mRNA levels (PCSK9 mRNA): 65% | percent inhibition of TTC39B mRNA (murine TTC39B mRNA [3]; 6.25 nM): 7% | percent inhibition of TTC39B mRNA (murine TTC39B mRNA [3]; 12.5 nM): 25% | percent inhibition of TTC39B mRNA (murine TTC39B mRNA [3]; 25.0 nM): 44% | percent inhibition of TTC39B mRNA (murine TTC39B mRNA [3]; 50.0 nM): 72% | percent inhibition of TTC39B mRNA (murine TTC39B mRNA [3]; 100.0 nM): 88% | percent inhibition of TTC39B mRNA (murine TTC39B mRNA [3]; 200.0 nM): 94% | glucose levels [4, 6]: 238 mg/dL | glucose levels ([4]; Week 3, 50 mg/kg/week): 231 mg/dL | glucose levels ([4]; Week 6, 50 mg/kg/week): 241 mg/dL | srb1 mRNA levels (effect of TTC39B inhibition) (SRB1 mRNA): 0 | percent inhibition of TTC39B mRNA (murine TTC39B mRNA [5]; 25 nM): 36% | percent inhibition of TTC39B mRNA (murine TTC39B mRNA [5]; 50 nM): 71% | percent inhibition of TTC39B mRNA (murine TTC39B mRNA [5]; 100 nM): 79% | percent inhibition of TTC39B mRNA (murine TTC39B mRNA [5]; 200 nM): 91% | APOA1 plasma protein % change over the baseline (APOA1 plasma protein; 50 mg/kg/week, 6 weeks): +108% | APOA1 plasma protein levels (APOA1 plasma protein; [6]): +10 | APOA1 plasma protein levels (APOA1 plasma protein; Week 3, 50 mg/kg/week): +15 | APOA1 plasma protein levels (APOA1 plasma protein; Week 6, 50 mg/kg/week): +20
